From patent US12281122B1, “PI3K inhibitors” (Cogent Biosciences, Inc., priority 2023, dated 2025)

Legend:
[1] = system: SKBR3 (PI3Kα-Wild Type) cell line; assay: HTRF phospho-AKT(S473) cell assay in SKBR3 cells; format: cell-based, human; details: Homo sapiens, SK-BR-3, 2 hours compound incubation, PDGF-BB stimulated
Outline: (§1)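 T47D: RPMI + 10% FBS + 0.2 units/mL insulin, top 5 μM. SKBR3: McCoy's 5A + 10% FBS, top 10 μM, 70 ng/ml PDGF-BB last 15 min. Both: 12-pt 1:3, 2 h, 37° C, max 0.5% DMSO; HTRF pAKT(S473); IC50.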

[2] = system: T47D (PI3Kα-H1047R) cell line; assay: HTRF phospho-AKT(S473) cell assay in T47D cells; format: cell-based, human; details: Homo sapiens, 2 hours compound incubation
Outline: as §1

[3] = HTRF phospho-AKT(S473), SKBR3 (PI3Kα-Wild Type) cells
[4] = HTRF phospho-AKT(S473), T47D (PI3Kα-H1047R) cells
[5] = SKBR3 (PI3Kα-Wild Type) cells, HTRF phospho-AKT(S473)
[6] = T47D (PI3Kα-H1047R) cells, HTRF phospho-AKT(S473)

SMILES	IC50 [1, 3] [nM]	IC50 [2, 4] [nM]	other results
Cc1cc([C@@H](C)Nc2ccc(Cl)nc2C(=O)NS(C)(=O)=O)c2nc(N3C[C@@H]4[C@H](C3)[C@H]4c3ccc(C)nn3)n(C)c(=O)c2c1 [Compound 441, 6-chloro-3-(((R)-1-(3,6-dimethyl-2-((1R,5S,6R)-6-(6-methylpyridazin-3-yl)-3-azabicyclo [3.1.0]hexan-3-yl)-4-oxo-3,4-dihydroquinazolin-8-yl)ethyl)amino)-N-(methylsulfonyl) picolinamide]	1000 to 5000	< 250	
Cc1cc2c(=O)n(C)c(-c3ccc4nn(C)cc4c3)nc2c([C@@H](C)Nc2ccc(Cl)nc2C(=O)NS(C)(=O)=O)n1 [Compound 840, (R)-6-chloro-3-((1-(3,6-dimethyl-2-(2-methyl-2H-indazol-5-yl)-4-oxo-3,4-dihydropyrido[3,4-d]pyrimidin-8-yl)ethyl)amino)-N-(methylsulfonyl) picolinamide]			IC50 ([1]; SKBR3 (PI3Kα-Wild Type) cell line, phospho-AKT(S473) HTRF): 1000 to 5000 nM; IC50 ([2]; T47D (PI3Kα-H1047R) cell line, phospho-AKT(S473) HTRF): 1000 to 5000 nM
Cc1cc([C@@H](C)Nc2ccc(Cl)nc2C(=O)NS(C)(=O)=O)c2nc(N3CCC(n4ncc5cc(N)ccc54)CC3)n(C)c(=O)c2c1 [Compound 278, (R)-3-((1-(2-(4-(5-amino-1H-indazol-1-yl)piperidin-1-yl)-3,6-dimethyl-4-oxo-3,4-dihydroquinazolin-8-yl)ethyl)amino)-6-chloro-N-(methylsulfonyl) picolinamide]			IC50 [1, 5]: 1000 to 5000 nM; IC50 [2, 6]: < 250 nM
Cc1cc([C@@H](C)Nc2ccc(Cl)nc2C(=O)NS(C)(=O)=O)c2nc(N3CCC4(CCC(O)CC4)CC3)n(C)c(=O)c2c1 [Compound 275, (R)-6-chloro-3-((1-(2-(9-hydroxy-3-azaspiro[5.5]undecan-3-yl)-3,6-dimethyl-4-oxo-3,4-dihydroquinazolin-8-yl)ethyl)amino)-N-(methylsulfonyl) picolinamide]			IC50 [1, 5]: ≥ 5000 nM; IC50 [2, 6]: < 250 nM
Cc1cc([C@@H](C)Nc2ccc(Cl)nc2C(=O)NS(C)(=O)=O)c2nc(N3C[C@@H]4[C@H](C3)[C@H]4c3n[nH]cc3F)n(C)c(=O)c2c1 [Compound 454, 6-chloro-3-(((R)-1-(2-((1R,5S,6R)-6-(4-fluoro-1H-pyrazol-3-yl)-3-azabicyclo[3.1.0]hexan-3-yl)-3,6-dimethyl-4-oxo-3,4-dihydroquinazolin-8-yl)ethyl)amino)-N-(methylsulfonyl) picolinamide]	1000 to 5000	< 250	

Further lines, with some results ahead:

IC50 [1, 3] [nM]	IC50 [2, 4] [nM]	SMILES	other results
≥ 5000	250 to 500	Cc1cc([C@@H](C)Nc2ccc(Cl)nc2C(=O)NS(C)(=O)=O)c2nc(N3Cc4cn(-c5ccccn5)nc4C3)n(C)c(=O)c2c1 [Compound 688, (R)-6-chloro-3-((1-(3,6-dimethyl-4-oxo-2-(2-(pyridin-2-yl)-2,6-dihydropyrrolo[3,4-c]pyrazol-5(4H)-yl)-3,4-dihydroquinazolin-8-yl)ethyl)amino)-N-(methylsulfonyl) picolinamide]	
1000 to 5000	< 250	Cc1cc([C@@H](C)Nc2ccc(Cl)nc2C(=O)NS(C)(=O)=O)c2nc(N3C[C@@H]4[C@H](C3)[C@H]4c3cc4n(n3)CCO4)n(C)c(=O)c2c1 [Compound 520, 6-chloro-3-(((R)-1-(2-((1R,5S,6R)-6-(2,3-dihydropyrazolo[5,1-b]oxazol-6-yl)-3-azabicyclo[3.1.0]hexan-3-yl)-3,6-dimethyl-4-oxo-3,4-dihydroquinazolin-8-yl)ethyl)amino)-N-(methylsulfonyl) picolinamide]	
1000 to 5000	250 to 500	Cc1cc([C@@H](C)Nc2ccc(Cl)nc2C(=O)NS(C)(=O)=O)c2nc(N3CCC(c4nn(C5COC5)cc4F)CC3)n(C)c(=O)c2c1 [Compound 759, (R)-6-chloro-3-((1-(2-(4-(4-fluoro-1-(oxetan-3-yl)-1H-pyrazol-3-yl)piperidin-1-yl)-3,6-dimethyl-4-oxo-3,4-dihydroquinazolin-8-yl)ethyl)amino)-N-(methylsulfonyl) picolinamide]	
